Patent publication US5202130A, “Suppression of eczematous dermatitis by calcium transport inhibition” (The Johns Hopkins University, priority 1989, dated 1993)
Structures can show the parent of a compound that is named as a salt. Where two headings read alike, the source gives them in different places.

What was measured:
[1] = tested on: contact sensitization against DNCB; assay: Inhibition of sensitization by diltiazem against DNCB (ear swelling); format: in vivo, BALB/c mice
Description: Diltiazem HCl (1,5-Benzothiazepin-4(5H)one, 3-acetoy lox-5-(2-(dimethylamine)ethyl)-2, 3-dihydro-2(4-methoxyphenyl)-, monohydrochloride, (+)-cis) was injected intraperitoneally in a dose of 30 mg/kg (LD50 =60 mg per kg) two times a day for three days. Two hours after the first injection, mice were sensitized by applying DNCB to the shaved dorsal back skin. Contact sensitization against DNCB was determined five days later.

[2] = stated with intraperitoneal administration in mice; no test described; cited from earlier work
[3] = tested on: contact sensitization against DNCB; assay: Effect of topically administered La^3+ on sensitization against DNCB (ear swelling); format: in vivo, BALB/c mice
Description: Mice were treated with 50 microliters of 10% La^3+ chloride mixture (500 mg La^3+ chloride dissolved in 5 ml of 95% ethanol:glycerin [4:1 ratio]) applied for five consecutive days to the shaved back surface. Control animals were treated with the ethanol:glycerin vehicle only. On days 6 and 7, 25 microliters of 1.0% DNCB solution was applied to the shaved dorsal back surface. In mice pretreated with topical La^3+, DNCB was applied only to the shaved dorsal skin that had previously been treated with La^3+.

formaldehyde allergy = assay: Prevention of inflammatory reaction by topical La^3+, patch test with formaldehyde; format: in vivo, human (patient); details: 2% in hydrophilic ointment base, read at 72 hours
Description: In this example, a patient with known allergy against for formaldehyde was challenged with formaldehyde in the presence of lanthanum chloride. Lanthanum chloride was used at a 2% concentration (2 g/100 ml) in hydrophilic ointment base, USP, and the lanthanum was incorporated in the ointment at the time of exposure. The results of the patch test were read at 72 hours, and a photograph was taken. […] There was a very slight decrease of inflammation due to the presence of the ointment base itself. This slight decrease as a result of the use the emollient only is a well known phenomenon. […] The effect of the lanthanum is clearly much greater than that of the ointment base alone.

DNFB contact sensitivity = assay: Transfer of hyporesponsiveness to DNFB by spleen cells of mice sensitized on LaCl3 treated skin; format: in vivo, mice of the strain AB (H-2^k)
Description: (§1) Inbred mice of the strain AB (H-2^k) reared in the breeding colony of the Humboldt University Berlin were used. The mice were fed with water and standard pellets ad libitum. During all procedures (sensitization, challenge, measurement) the animals were anesthetized by an intraperitoneal injection of hexobarbital sodium salt. The number of animals per experimental group (n) is presented.
The mice were anesthesized in an area of 2.0×2.0 cm on their abdomen, abdominal skin was shaved with a blade, and a 20 microliters of a 0.5% solution of 2,4-dinitro-1-fluorobenzene (DNFB) (Serva, Heidelberg, F.R.G.) in acetone were applied to this site. This procedure was repeated one day later.
The challenge reaction was induced 5 days after the first sensitization by an application of 0.2% DNFB in acetone on the dorsal surfaces of both ears. The ear thickness was measured before and 24 hours after challenge using an engineers micrometer (Peacock, Japan).
(§2) 10 g LaCl3 ×7H2 O (Laborchemie Apolda, G.D.R.) was dissolved in 10 ml water and incorporated into unguentum alcoholum lanae aquosum. The previously shaved sensitization site on the abdominal skin of the mice was treated at the days numbered -1, 0, and +1 with this ointment. At the days 0 and +1, when contact sensitization with DNFB was performed, the ointment was applied on hour after sensitization, so that the penetration of the DNFB was not influenced by the ointment.
The spleens from mice treated with lanthanum and control animals were removed and homogenized by gently pressing the tissue through a steel mesh. The cell were suspended in RPMI 1640 medium (SIFIN, Berlin, G.D.R.) and were washed three times by centrifugation at 300 g for 10 minutes and resuspended. The treatment with monoclonal antibodies (mab) was performed by incubating the cells for 20 minutes with the L3T4 mab (clone GK 1.5, ATCC, Rockville, USA) or the anti-Lyt 2 mab (clone 53-6, ATCC, Rockville, USA) in a final dilution of 1:50. Thereafter the cells were washed 2 times and incubated for 20 minutes at 4° C. with a rat anti-mouse Ig mab (ATCC, Rockville, USA). […]

[4] = tested on: suppressor cells (CD4 or CD8 T cell determinants); assay: Phenotype of the suppressor cells, spleen cells treated in vitro with mab and complement before transfer; format: in vivo, mice of the strain AB (H-2^k)
Description: The spleens from mice treated with lanthanum and control animals were removed and homogenized by gently pressing the tissue through a steel mesh. […] Thereafter the cells were washed 2 times and incubated for 20 minutes at 4° C. with a rat anti-mouse Ig mab (ATCC, Rockville, USA). The cells were washed 2 times and incubated for 30 minutes at 37° C. with normal rabbit serum, diluted 1:5 as a source of complement. The serum used was not toxic to the cells. Thereafter the cells were washed 2 times and 10^8 viable cells were injected intravenously into native syngeneic mice.
The non-parametric Mann-Whitney test was used.
To investigate the phenotype of this suppressor cell, spleen cells were harvested from mice which were previously sensitized with DNFB on LaCl3 pretreated skin. […]

[5] = tested on: delayed hypersensitivity to ovalbumin; assay: Antigenic specificity of the suppressor cells (ovalbumin response of recipients); format: in vivo, mice of the strain AB (H-2^k)
Description: as §1, §2
The spleens from mice treated with lanthanum and control animals were removed and homogenized by gently pressing the tissue through a steel mesh. […]
Other groups of mice were sensitized by injection 50 microliters of ovalbumin (Serva, Heidelberg, F.R.G.) emulsified in 20 microliters of complete Freund's adjuvant (Difco laboratories, Detroit, U.S.A.) subcutaneously into the base of the tail. […] One day later foodpad swelling was measured. […]

[6] = tested on: contact allergic dermatitis; assay: Patch tests in seven patients with known contact allergic dermatitis, overall; format: in vivo, human (patients)
Description: Seven patients with known contact allergic dermatitis were recruited. One had hypersensitivity to nickel, four of these individuals had allergies against formaldehyde, and two had known allergies against chromium sulfate. Three patch test were applied in each individual. Patient number 1 was exposed to nickel sulfate (5% weight per volume) in hydrophilic ointment base USP. "Results" refers to the amount of erythema in the patch test sites at 48 hours, judged on a scale of 0-3+, where 3+ represents maximum erythema and inflammation.

[7] = format: in vivo, human (patients with atopic dermatitis)
Description: To date, eight patterns with endogenous eczema (atopic dermatitis) have been treated with topical lanthanides. In three individuals, atopic dermatitis affected the majority of the body surface. These three patients were treated with a single total body application of lanthanum chloride (5% in hydrophilic ointment base). Blood levels of lanthanum were measured by atomic absorption spectroscopy, over a period of 1/2 to 24 hours after the single application.

[8] = tested on: atopic dermatitis affecting the hands; assay: Treatment of atopic dermatitis affecting the hands with lanthanum chloride ointment; format: in vivo, human (patients); details: 5% ointment twice daily, 1-3 months; five patients
Description: Five patients with atopic dermatitis affecting the hands were treated with topical lanthanides. In this protocol individuals were dispensed a 5% lanthanum chloride ointment and were instructed to use a thin film on the hands twice daily immediately before work and immediately upon returning home from work. These individuals did so for a period of 1-3 months.

[9] = tested on: epidermal Langerhans cells (ELC); assay: Density and morphology of epidermal Langerhans cells, ATPase and Ia staining; format: in vivo, BALB/c mice
Description: Mice were sacrificed by cervical dislocation and their ears were amputated at the base. The skin was separated from underlying cartilage by dissection and pressed dermal side up onto an adhesive surface of a double stick tape (Dermotome Tape, 3M, St. Paul, Minn.), that had previously been fixed onto a glass slide. […] (25,26), then the epidermis was separated as an intact sheet from the underlying dermis.
Epidermal sheets were stained for ATPase activity according to MacKenzie and Squier (27). Briefly, epidermal sheets were fixed in Tris-maleic acid buffered 4% paraformaldehyde, pH 7.3, for 20 minutes at 4° C. After three washes with a 0.9% NaCl solution, the epidermal sheets were incubated at pH 7.3 in a solution containing 10 mg ATP, 5 ml of 10% MgSO4, 3 ml of 2% […], and 42 ml Tris-maleic acid buffer for one hour at 37° C., washed with 0.9% NaCl solution, and reacted with 0.1% ammonium sulfide for five minutes at room temperature. The stained specimens were mounted in a 9:1 mixture of PBS/glycerol.
Ia-positive cells were stained as follows: EDTA separated epidermal specimens, washed in PBS for 30 minutes, were fixed in cold acetone (-20° C.) for 20 minutes. After washing with PBS, the epidermal sheets were incubated with a 1:100 dilution of anti-mouse I-A^d monoclonal antibody (Becton Dickinson, Mountain View, Calif.) at 4° C. overnight (28). Subsequently, specimens were washed in PBS for two hours and exposed to fluorescein conjugated F(ab')2 fragment goat anti-mouse IgG (Organon Teknika Corp., West Chester, Pa.) at a 1:50 dilution for two hours at 37° C. The epidermal sheets were mounted in Perma Fluor (Lipshaw, Detroit, Mich.).
Slides were coded and read in a "blinded" manner. The density of ELC within each epidermal sheet was determined by using a dual epifluorescent and light microscope (Olympus BH-2, Japan) with a calibrated net micrometer grid. ATPase-positive ELC and Ia-positive ELC present in a 0.25 mm^2 area were counted in two random fields per sheet (total: 16 fields per experimental group). ELC density was recorded as the number of cells per mm^2 (mean ±S.E.). Statistical significance of the differences between treatment and control groups was calculated using a two-talled Wilcoxon Rank Sum Test. Differences between groups were considered significant at p=0.05.

[10] = following intraperitoneal administration; cited from earlier work
[11] = 0.25 mg per animal intraperitoneally for five days, vs control animals

COc1ccc([C@@H]2Sc3ccccc3N(CCN(C)C)C(=O)[C@@H]2OC(C)=O)cc1 [diltiazem, 1,5-Benzothiazepin-4(5H)one, 3-acetoy lox-5-(2-(dimethylamine)ethyl)-2,3-dihydro-2(4-methoxyphenyl)-, monohydrochloride, (+)-cis]
reduction in the contact hypersensitivity response ([1]; 30 mg/kg intraperitoneally two times a day for three days, p=0.001): 67% | decrease in ear thickness 24 h post-challenge ([1]; FIG. 3, vs. solvent only, p<0.001): 67% | difference in ear swelling between pretreated and control animals ([1]; statement follows negative controls (challenged, not sensitized) 0.03±0.01 mm): not statistically significant | ear swelling ([1]; vehicle control 0.15±0.02 mm): 0.05±0.01 mm | LD50 [2]: 60 mg per kg

[Cl][La]([Cl])[Cl] [lanthanum chloride, Lanthanum chloride]
ear swelling ([3]; 24 h post-challenge, control 0.12±0.02 mm, p=0.028): 0.05±0.02 mm | decrease in ear thickness 24 h post-challenge ([3]; FIG. 2, topical, vs. non-La-treated animals, p<0.01, challenge 25 μl of 0.25% DNCB): 58% | difference in ear swelling between pretreated and control animals ([3]; statement follows negative control (challenged without prior sensitization) 0.03±0.01 mm): not statistically significant | reduction in the contact hypersensitivity response ([3]; topical, 50 microliters of 10% La^3+ chloride, five days): 58% | inflammation in patch test (formaldehyde allergy): almost totally abolished | % Suppression (DNFB contact sensitivity; recipients of cells from donors DNFB-sensitized on LaCl3 treated skin, n 7): 88% | transfer of hyporesponsiveness to DNFB by spleen cells (DNFB contact sensitivity; topical LaCl3 treatment of donors): transferred the hyporesponsiveness to DNFB to native syngeneic recipients | Ear thickness (DNFB contact sensitivity; ± SD, recipients of cells from donors DNFB-sensitized on LaCl3 treated skin, n 7, p 0.01, no cell transfer 46 ± 4.8): 29 ± 2.4 10^-2 mm | suppressor T cell population induced ([4]; DNFB-sensitized mice): a splenic CD4-CD8+ suppressor T cell population is induced | % Suppression ([4]; spleen cells of LaCl3-treated, DNFB-sensitized donors, in vitro treatment as labelled (LaCl3 line = no treatment of cells), n 5): 100% | Ear thickness ([4]; ± SD, spleen cells of LaCl3-treated, DNFB-sensitized donors, in vitro treatment as labelled (LaCl3 line = no treatment of cells), no cell transfer 50 ± 4.2, n 5): 28 ± 2.1 10^-2 mm | footpad swelling response of the recipients to ovalbumin ([5]; transferred cells from mice sensitized with DNFB on LaCl3-treated skin): not affected | Ear thickness (footpad swelling per footnote) ([5]; ± SD, DNFB sensitization on LaCl3 treated skin, recipients immunized with ovalbumin, n 8, NS, no cell transfer .68 ± .12): .68 ± .09 10^-2 mm | suppression of inflammation in all individuals ([6]; 5% lanthanum chloride at the time of exposure to known allergen): significant suppression of inflammation | suppression of inflammation upon challenge ([6]; seven patients, known sensitizing agents): dose dependent effect in suppression of inflammation | penetration of the stratum corneum of the epidermis [7]: does penetrate the stratum corneum of the epidermis | time of peak blood level ([7]; human, in vivo, topical or ocular): approximately 4 hours | Blood Concentration of La^+ 3 ([7]; human, in vivo, topical or ocular, 0.5 h): 4 ± 2.8 ng/mL | Blood Concentration of La^+ 3 ([7]; human, in vivo, topical or ocular, 1 h): 12.3 ± 2.3 ng/mL | Blood Concentration of La^+ 3 ([7]; human, in vivo, topical or ocular, 2 h): 12.16 ± 3 ng/mL | Blood Concentration of La^+ 3 ([7]; human, in vivo, topical or ocular, 4 h): 30.9 ± 2.2 ng/mL | Blood Concentration of La^+ 3 ([7]; human, in vivo, topical or ocular, 12 h): 14 ± 1.6 ng/mL | Blood Concentration of La^+ 3 ([7]; human, in vivo, topical or ocular, 24 h): 11 ± 3.6 ng/mL | blood level relative to levels known to produce toxicity in animals and humans ([7]; in vivo): well below those levels known to produce toxicity in animals and humans | fissuring, oozing, and puritis [8]: decrease | hand dermatitis [8]: significant improvement

lanthanum citrate [La^3+ citrate]
decrease in density of ATPase positive cells [9, 11]: 13% | decrease in number of Ia-positive cells [9, 11]: 14% | Density of Langerhans cells in ear skin, ATPase ([9]; ATPase staining, ± S.E., 0.9% NaCl 807 ± 55): 702 ± 49 cells/mm^2 | Density of Langerhans cells in ear skin, Ia ([9]; Ia staining, ± S.E., 0.9% NaCl 830 ± 46): 715 ± 59 cells/mm^2 | ELC "rounded up" and without dendrites ([9]; in focal areas, ATPase and Ia staining): approximately 20% | staining of "round" cells by the ATPase technique ([9]; subjectively measured by darkening of the cell body): more darkly stained | accumulation in the skin [10]: accumulated in the skin
